Experimental data taken from patent US20110070232A1, “Combination Therapy with an Antitumor Alkaloid” (Pharma Mar, S.A., priority 2008, published 2011).
Where two headings read alike, the source gives them in different places.

Legend:
[1] = tested on: 5637 human bladder carcinoma cell line; assay: IC50 determination, MTS assay, 72 h (Example 2); type: cell-based; conditions: Homo sapiens, 72 hours of drug exposure, read-out: IC50
Method: (§1) The following agents were evaluated in combination with PM00104: gemcitabine (Gemzar®) and cisplatin. The human bladder carcinoma cell lines selected for this assay were the following: 5637 and UM-UC-3 cell lines. 5637 cell line was grown in RPMI 1640 medium supplemented with 10% FBS, 1.5 g/L sodium bicarbonate, 4.5 g/L glucose, 10 mM HEPES, 1 mM sodium pyruvate, and 2 mM L-glutamine. UM-UC-3 cell line was grown in MEM Eagle's medium supplemented with 10% FBS and 2 mM L-glutamine.
(§2) a. […] It was used the same methodology as those disclosed in Example 1.
(§3) IC50 values were calculated from an average of three to four assays for each of the test agents.

[2] = tested on: UM-UC-3 human bladder carcinoma cell line; assay: IC50 determination, MTS assay, 72 h (Example 2); type: cell-based; conditions: Homo sapiens, UMUC3, 72 hours of drug exposure, read-out: IC50
Method: as §1, §2, §3

Hs746T tumors = type: in vivo, mice; conditions: mg/kg/day: PM00104 0.90 IV, cisplatin 5 IP, paclitaxel 10 IP
Excerpt: Female athymic nude mice (Harlan Sprague Dawley, Madison, Wis.) were utilized for all experiments. Animals were housed in ventilated rack caging with food and water ad libitum. The mice were acclimated for at least 5 days prior to tumor implantation with a tumor cell suspension. The Vehicle Control group contained 11 mice, groups 2-4 contained 7 mice and the rest of groups contained 8 mice.
The tumor model used in these studies was Hs746T cell line, which was obtained from the ATCC (Manassas, Va.).
Hs746T cells were grown in DMEM supplemented with 10% FBS, 1.5 g/L sodium bicarbonate, 4.5 g/L glucose, and 4 mM L-glutamine. Each animal was implanted SC on the right flank, using a trochar, with 5×10^6 Hs746T cells, from in vitro passage 18, in a 0.2 mL suspension of 50% Matrigel and 50% serum free medium, without antibiotics. Bacterial cultures were performed on aliquots of the cells prepared for implantation.
Treatments were initiated on DPI 16.
(§4) Tumor size measurements were recorded twice weekly from the treatment initiation until the termination of the study.
(§5) Mean, standard deviation and standard error of the mean were determined for tumor volume for all animal groups at all assessments. Student's t test was performed on tumor volumes at each measurement day, including at the end of the study, to determine whether there were any statistically significant differences between combination treatment groups and single monotherapy treatment groups.

MIA PaCa-2 tumors = type: in vivo, mice; conditions: mg/kg/day: PM00104 0.90 IV
Excerpt: Female athymic nude mice (Harlan Sprague Dawley, Madison, Wis.) were utilized for all experiments. Animals were housed in ventilated rack caging with food and water ad libitum. The mice were acclimated for at least 5 days prior to tumor implantation with a tumor cell suspension.
The tumor model used in these studies was MIAPaCA-2 cell line, which was obtained from the ATCC (Manassas, Va.).
Each animal was implanted subcutaneously (SC) on the right flank, using a trochar, with 1×10^7 MIAPaCA-2 cells, from in vitro passage 18, in a 0.2 mL suspension of 50% Matrigel/50% serum free medium, without antibiotics. Matrigel is a biological extracellular matrix that is liquid at 4° C. and solid at 37° C., and it promotes tumor growth by maintaining the cells in close association in a localized area. Bacterial cultures were performed on aliquots of the cells prepared for implantation.
Tumor measurements were determined by using Vernier calipers. The formula to calculate volume for a prolate ellipsoid was used to estimate tumor volume (mm^3) from 2-dimensional tumor measurements: Tumor volume (mm^3)=[L×W^2]÷2, where L is the length and it is the longest diameter in mm, and W is the width and it is the shortest diameter in mm of a tumor. Assuming unit density, volume was converted to weight (i.e., 1 mm^3=1 mg).
Treatments were initiated on DPI (Day Post Implantation) 13. In these experiments, the combination therapy groups were treated by co-administering the two drugs at the same time, with no attempt to sequence the treatments.
as §4, §5
The definition and criteria for the evaluation of potentiation and the degree of additivity for the combination therapy were as follows:
Additivity was determined as discussed above by comparing the % of tumor growth inhibition of the monotherapy groups versus those of the combination group as follows: • 1. Determine the % of tumor growth inhibition, as 100-% T/C, for each of the drugs administered as monotherapy at the doses used in the combinations. % T/C was obtained by comparing the mean tumor weight in the treatment groups (T) to the mean tumor weight in the control group (C) (T/C×100%). • 2. The two scores were added together to determine the “expected response” if each agent produced the same response as it did when administered as monotherapy. • 3. This “expected response” was subtracted from the % of tumor growth inhibition determined for the combination therapy group: • a. […] If the resulting number was close to zero, the effect of combining the two drugs was determined as additive. • c.

[3] = tested on: MDA-MB-231 (breast cancer) cell line; assay: IC50 determination, MIT (tetrazolium) assay, 72 h (Example 18); type: cell-based; conditions: Homo sapiens; MDA-MB-231, 72 hours of drug exposure
Method: (§6) Before plating, cell cultures were trypsinized and cell number estimated using an automated flow cytometer.
(§7) Cells were harvested and seeded in 96 well microtiter plates at the appropriate cell density (5,000-10,000 cells) in 150 μL of media and incubated for 24 hours to allow the cells to attach before drug addition.
(§8) After the incubation period (72 hours), 50 μL of MIT solution was added to each microtiter well and incubated for further 8 hours at 37° C. The culture medium was then removed and 50 μl, of DMSO were added to dissolve the MIT crystals. Optical densities were read at 540 nm on spectrophotometer microplate reader.
(§9) IC50 values were calculated from an average of two to four assays for each of the test agents.

[4] = tested on: MCF-7 (breast cancer) cell line; assay: as above; type: cell-based; conditions: Homo sapiens, MCF7; MCF-7, 72 hours of drug exposure
Method: as §6, §7, §8, §9

[5] = day 13, gemcitabine 140 IP, erlotinib 100 PO
[6] = day 15, gemcitabine 140 IP, erlotinib 100 PO
[7] = day 19, gemcitabine 140 IP, erlotinib 100 PO
[8] = day 22, gemcitabine 140 IP, erlotinib 100 PO
[9] = day 27, gemcitabine 140 IP, erlotinib 100 PO
[10] = day 29, gemcitabine 140 IP, erlotinib 100 PO
[11] = day 33, gemcitabine 140 IP, erlotinib 100 PO
[12] = day 36, gemcitabine 140 IP, erlotinib 100 PO

## COc1c(C)cc2c(c1O)[C@@H]1[C@@H]3Cc4c(OC(C)=O)c(C)c5c(c4[C@H](CNC(=O)/C=C/c4cccc(C(F)(F)F)c4)N3[C@@H](O)[C@H](C2)N1C)OCO5 [PM00104]
[1]
  IC50: 5.6 ng/mL
[2]
  IC50: 6.9 ng/mL
Hs746T tumors; day 16
  % Inhibition: 2.0%
  % T/C on day: 98.0%
Hs746T tumors; day 20
  % Inhibition: 34.4%
  % T/C on day: 65.6%
Hs746T tumors; day 23
  % Inhibition: 49.7%
  % T/C on day: 50.3%
Hs746T tumors; day 26
  % Inhibition: 57.2%
  % T/C on day: 42.8%
Hs746T tumors; day 29
  % Inhibition: 59.1%
  % T/C on day: 40.9%
Hs746T tumors; day 33
  % Inhibition: 49.8%
  % T/C on day: 50.2%
Hs746T tumors; day 36
  % Inhibition: 31.4%
  % T/C on day: 68.6%
MIA PaCa-2 tumors; day 13, erlotinib 50 PO
  % Inhibition: 0.9%
MIA PaCa-2 tumors; [5]
  % Inhibition: 0.9%
  % T/C on day: 99.1%
MIA PaCa-2 tumors; day 15, erlotinib 50 PO
  % Inhibition: 12.9%
MIA PaCa-2 tumors; [6]
  % Inhibition: 12.9%
  % T/C on day: 87.1%
MIA PaCa-2 tumors; day 19, erlotinib 50 PO
  % Inhibition: 22.8%
MIA PaCa-2 tumors; [7]
  % Inhibition: 22.8%
  % T/C on day: 77.2%
MIA PaCa-2 tumors; day 22, erlotinib 50 PO
  % Inhibition: 39.2%
MIA PaCa-2 tumors; [8]
  % Inhibition: 39.2%
  % T/C on day: 60.8%
MIA PaCa-2 tumors; day 27, erlotinib 50 PO
  % Inhibition: 30.8%
MIA PaCa-2 tumors; [9]
  % Inhibition: 30.8%
  % T/C on day: 69.2%
MIA PaCa-2 tumors; day 29, erlotinib 50 PO
  % Inhibition: 40.0%
MIA PaCa-2 tumors; [10]
  % Inhibition: 40.0%
  % T/C on day: 60.0%
MIA PaCa-2 tumors; day 33, erlotinib 50 PO
  % Inhibition: 36.1%
MIA PaCa-2 tumors; [11]
  % Inhibition: 36.1%
  % T/C on day: 63.9%
MIA PaCa-2 tumors; day 36, erlotinib 50 PO
  % Inhibition: 43.4%
MIA PaCa-2 tumors; [12]
  % Inhibition: 43.4%
  % T/C on day: 56.6%
[3]
  IC50: 6 nM
[4]
  IC50: 1 nM
